{
  "source": "patent EP0942911B1",
  "about": "“BENZOPYRANOPYRROLE AND BENZOPYRANOPYRIDINE ALPHA-1 ADRENERGIC COMPOUNDS” (Abbott Laboratories, priority 1996, dated 1998)",
  "note": "Counter-ions that a name gives are not always drawn.",
  "data": [
    {"biological_target": "T1, α-1A adrenoreceptor (Rattus norvegicus, UniProt P43140)", "T1 sequence (P43140 1-466)": "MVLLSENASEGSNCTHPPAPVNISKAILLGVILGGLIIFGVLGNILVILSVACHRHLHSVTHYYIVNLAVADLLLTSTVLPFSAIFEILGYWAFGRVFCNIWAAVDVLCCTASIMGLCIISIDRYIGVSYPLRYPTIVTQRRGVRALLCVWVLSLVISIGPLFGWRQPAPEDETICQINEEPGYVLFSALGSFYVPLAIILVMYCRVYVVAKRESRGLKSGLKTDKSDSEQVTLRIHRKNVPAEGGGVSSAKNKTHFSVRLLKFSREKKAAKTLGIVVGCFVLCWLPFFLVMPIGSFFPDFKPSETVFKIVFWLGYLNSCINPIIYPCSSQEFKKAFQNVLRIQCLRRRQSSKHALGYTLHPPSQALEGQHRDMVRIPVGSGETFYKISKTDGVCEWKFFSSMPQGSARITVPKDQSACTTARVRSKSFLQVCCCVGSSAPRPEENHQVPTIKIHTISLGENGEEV", "assay": "cell-based", "settings": "phenylephrine-induced contraction; Schild plot; read-out: In Vitro Characterization (pA2) Rat Vas (converted)", "summary_of_the_method": "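Phenylephrine dose-response curves for contraction were repeated against increasing test-agent concentrations. pA2 was derived by Schild plot [[…] vs log molarity of test agent].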", "units": {"Kb": "nM"}, "values": [
      {"smiles": "COc1cccc2c1[C@H]1CN(CCCCn3c(=O)[nH]c4c(sc5nccnc54)c3=O)C[C@@H]1CO2.Cl.Cl", "note": "(racemic) [Example 74, 3-[4-((±)-trans-9-Methoxy-1,2,3,3a,4,9b-hexahydro-[1]-benzopyrano[3,4-c]pyrrol-2-yl)butyl]-pyrazino[2',3':4,5]thieno[3,2-d]pyrimidine-2,4(1H,3H)-dione dihydrochloride]", "Kb": 0.794},
      {"smiles": "COc1cccc2c1[C@@H]1CN(CCCCn3c(=O)[nH]c4c(sc5ncc(Cl)nc54)c3=O)C[C@H]1CO2", "note": "[Example 13, 3-[4-((3aS,9bR)-trans-9-Methoxy-1,2,3,3a,4,9b-hexahydro-[1]-benzopyrano[3,4-c]pyrrol-2-yl)butyl]-8-chloro-pyrazino[2',3':4,5]thieno[3,2-d]pyrimidine-2,4(1H,3H)-dione hydrochloride]", "Kb": 0.158},
      {"smiles": "COc1ccc2sc3c(=O)n(CCCCN4C[C@H]5COc6cccc(OC)c6[C@@H]5C4)c(=O)[nH]c3c2n1", "note": "[Example 26, 3-[4-((3aS,9bR)-trans-9-Methoxy-1,2,3,3a,4,9b-hexahydro-[1]-benzopyrano[3,4-c]pyrrol-2-yl)butyl]-8-methoxy-pyrido[2',3':4,5]thieno[3,2-d]pyrimidine-2,4(1H,3H)-dione hydrochloride]", "Kb": 0.0457},
      {"smiles": "COc1cccc2c1[C@@H]1CN(CCCCn3c(=O)[nH]c4c(sc5c(Cl)nccc54)c3=O)C[C@@H]1CO2", "note": "[Example 53, 3-[4-((3aR,9bR)-cis-9-Methoxy-1,2,3,3a,4,9b-hexahydro-[1]-benzopyrano[3,4-c]pyrrol-2-yl)butyl]-6-chloro-pyrido[4',3':4,5]thieno[3,2-d]pyrimidine-2,4(1H,3H)-dione]", "Kb": 0.49}
    ]},
    {"tested_on": "α-1A adrenoreceptor", "assay": "Functional antagonism: inhibition of PE-induced contraction of canine prostate strips (Schild plot)", "type": "cell-based", "settings": "phenylephrine-induced contraction", "from_the_text": "Canine prostate strips were used in vitro as previously described (Hieble, J.P., Boyce, A.J. and Caine, M., Fed. Proc., 45: 2609-2614 (1986)), to determine antagonist potencies against phenylephrine-induced contractions.\nFunctional assays indicative of pharmacologically defined α-1 adrenoreceptors were used to further characterize compounds. Inhibition of phenylephrine (PE)-induced contraction of canine prostate smooth muscle can be correlated with α-1A adrenoreceptor activation. […] For each of these models, agonist dose response curves were repeated against increasing concentrations of test agent to derive a Schild plot [log ([…]) against log (molarity of test agent)] to determine the pA2.", "values": [
      {"smiles": "COc1ccc2c(c1)OC[C@H]1CN(CCn3c(=O)[nH]c4c(sc5ccccc54)c3=O)C[C@@H]21.Cl", "note": "(racemic) [Example 63, 3-[2-((±)-cis-7-Methoxy-1,2,3,3a,4,9b-hexahydro-[1]-benzopyrano[3,4-c]pyrrol-2-yl)ethyl]-[1]benzthieno[3,2-d]pyrimidine-2,4(1H,3H)-dione hydrochloride]", "In Vitro Characterization (pA2) Dog Prostate": 6.65},
      {"smiles": "COc1ccc2c(c1)OC[C@H]1CN(CCCn3c(=O)[nH]c4c(sc5ccccc54)c3=O)C[C@@H]21.Cl", "note": "(racemic) [Example 64, 3-[3-((±)-cis-7-Methoxy-1,2,3,3a,4,9b-hexahydro-[1]-benzopyrano[3,4-c]pyrrol-2-yl)propyl]-[1]benzthieno[3,2-d]pyrimidine-2,4(1H,3H)-dione hydrochloride]", "In Vitro Characterization (pA2) Dog Prostate": 6.92},
      {"smiles": "COc1cccc2c1[C@@H]1CN(CCn3c(=O)[nH]c4c(sc5ccccc54)c3=O)C[C@@H]1CO2.Cl", "note": "(racemic) [Example 65, 3-[2-((±)-cis-9-Methoxy-1,2,3,3a,4,9b-hexahydro-[1]-benzopyrano[3,4-c]pyrrol-2-yl)ethyl]-[1]benzthieno[3,2-d]pyrimidine-2,4(1H,3H)-dione hydrochloride]", "In Vitro Characterization (pA2) Dog Prostate": 7.76},
      {"smiles": "COc1cccc2c1[C@@H]1CN(CCCn3c(=O)[nH]c4c(sc5ccccc54)c3=O)C[C@@H]1CO2.Cl", "note": "(racemic) [Example 66, 3-[3-((±)-cis-9-Methoxy-1,2,3,3a,4,9b-hexahydro-[1]-benzopyrano[3,4-c]pyrrol-2-yl)propyl]-[1]benzthieno[3,2-d]pyrimidine-2,4(1H,3H)-dione hydrochloride]", "In Vitro Characterization (pA2) Dog Prostate": 7.48},
      {"smiles": "COc1cccc2c1OC[C@H]1CN(CCn3c(=O)[nH]c4c(sc5ccccc54)c3=O)C[C@@H]21.Cl", "note": "(racemic) [Example 67, 3-[2-((±)-cis-6-Methoxy-1,2,3,3a,4,9b-hexahydro-[1]-benzopyrano[3,4-c]pyrrol-2-yl)ethyl]-[1]benzthieno[3,2-d]pyrimidine-2,4(1H,3H)-dione hydrochloride]", "In Vitro Characterization (pA2) Dog Prostate": 7.33},
      {"smiles": "COc1cccc2c1OC[C@H]1CN(CCCn3c(=O)[nH]c4c(sc5ccccc54)c3=O)C[C@@H]21.Cl", "note": "(racemic) [Example 68, 3-[3-((±)-cis-6-Methoxy-1,2,3,3a,4,9b-hexahydro-[1]-benzopyrano[3,4-c]pyrrol-2-yl)propyl]-[1]benzthieno[3,2-d]pyrimidine-2,4(1H,3H)-dione hydrochloride]", "In Vitro Characterization (pA2) Dog Prostate": 7.02},
      {"smiles": "Cl.O=c1[nH]c2c(sc3ccccc32)c(=O)n1CCN1C[C@@H]2COc3ccccc3[C@@H]2C1", "note": "(racemic) [Example 69, 3-[2-((±)-cis-1,2,3,3a,4,9b-hexahydro-[1]-benzopyrano[3,4-c]pyrrol-2-yl)ethyl]-[1]benzthieno[3,2-d]pyrimidine-2,4(1H,3H)-dione hydrochloride]", "In Vitro Characterization (pA2) Dog Prostate": 6.91},
      {"smiles": "COc1cccc2c1[C@H]1CN(CCCCn3c(=O)[nH]c4c(sc5nccnc54)c3=O)C[C@@H]1CO2.Cl.Cl", "note": "(racemic) [Example 74, 3-[4-((±)-trans-9-Methoxy-1,2,3,3a,4,9b-hexahydro-[1]-benzopyrano[3,4-c]pyrrol-2-yl)butyl]-pyrazino[2',3':4,5]thieno[3,2-d]pyrimidine-2,4(1H,3H)-dione dihydrochloride]", "In Vitro Characterization (pA2) Dog Prostate": 9.03},
      {"smiles": "COc1cccc2c1[C@@H]1CCN(CCCCn3c(=O)[nH]c4c(sc5ncccc54)c3=O)C[C@H]1CO2", "note": "(racemic) [Example 85, 3-[4-((±)-trans-10-Methoxy-1,3,4,4a,5,10b-hexahydro-2H-[1]-benzopyrano[3,4-c]pyrido-3-yl)butyl]-pyrido[3',2':4,5]thieno[3,2-d]pyrimidine-2,4(1H,3H)-dione dihydrochloride]", "In Vitro Characterization (pA2) Dog Prostate": 8.6},
      {"smiles": "COc1cccc2c1[C@@H]1CN(CCCCn3c(=O)[nH]c4c(sc5cccnc54)c3=O)C[C@@H]1CO2", "note": "[Example 1, 3-[4-((3aR,9bR)-cis-9-Methoxy-1,2,3,3a,4,9b-hexahydro-[1]-benzopyrano[3,4-c]pyrrol-2-yl)butyl]-pyrido[2',3':4,5]thieno[3,2-d]pyrimidine-2,4(1H,3H)-dione hydrochloride]", "In Vitro Characterization (pA2) Dog Prostate": 8.69},
      {"smiles": "COc1cccc2c1[C@H]1CN(CCCCn3c(=O)[nH]c4c(sc5cccnc54)c3=O)C[C@H]1CO2", "note": "[Example 2, 3-[4-((3aS,9bS)-cis-9-Methoxy-1,2,3,3a,4,9b-hexahydro-[1]-benzopyrano[3,4-c]pyrrol-2-yl)butyl]-pyrido[2',3':4,5]thieno[3,2-d]pyrimidine-2,4(1H,3H)-dione hydrochloride]", "In Vitro Characterization (pA2) Dog Prostate": 7.95},
      {"smiles": "COc1cccc2c1[C@@H]1CN(CCCCn3c(=O)[nH]c4c(sc5cccnc54)c3=O)C[C@H]1CO2", "note": "[Example 3, 3-[4-((3aS,9bR)-trans-9-Methoxy-1,2,3,3a,4,9b-hexahydro-[1]-benzopyrano[3,4-c]pyrrol-2-yl)butyl]-pyrido[2',3':4,5]thieno[3,2-d]pyrimidine-2,4(1H,3H)-dione hydrochloride]", "In Vitro Characterization (pA2) Dog Prostate": 9.43},
      {"smiles": "COc1cccc2c1[C@@H]1CN(CCCCn3c(=O)[nH]c4c(sc5ncc(Cl)nc54)c3=O)C[C@H]1CO2", "note": "[Example 13, 3-[4-((3aS,9bR)-trans-9-Methoxy-1,2,3,3a,4,9b-hexahydro-[1]-benzopyrano[3,4-c]pyrrol-2-yl)butyl]-8-chloro-pyrazino[2',3':4,5]thieno[3,2-d]pyrimidine-2,4(1H,3H)-dione hydrochloride]", "In Vitro Characterization (pA2) Dog Prostate": 9.91},
      {"smiles": "COc1ccc2sc3c(=O)n(CCCCN4C[C@H]5COc6cccc(OC)c6[C@@H]5C4)c(=O)[nH]c3c2n1", "note": "[Example 26, 3-[4-((3aS,9bR)-trans-9-Methoxy-1,2,3,3a,4,9b-hexahydro-[1]-benzopyrano[3,4-c]pyrrol-2-yl)butyl]-8-methoxy-pyrido[2',3':4,5]thieno[3,2-d]pyrimidine-2,4(1H,3H)-dione hydrochloride]", "In Vitro Characterization (pA2) Dog Prostate": 9.15},
      {"smiles": "COc1cccc2c1[C@@H]1CCN(CCCCn3c(=O)[nH]c4c(sc5cccnc54)c3=O)C[C@H]1CO2", "note": "[Example 95, 3-[4-((4aS,10bR)-trans-10-Methoxy-1,3,4,4a,5,10b-hexahydro-2H-[1]-benzopyrano[3,4-c]pyrido-3-yl)butyl]-pyrido[2',3':4,5]thieno[3,2-d]pyrimidine-2.4(1H,3H)-dione dihydrochloride]", "In Vitro Characterization (pA2) Dog Prostate": 8.58}
    ]}
  ]
}
